Key:
Assay in all cases: GSH conjugation of CDNB, Michaelis-Menten fit
Type in all cases: biochemical
Conditions in all cases: saturating GSH
[1] = target: T1, TvGSTO-6S (Trametes versicolor, UniProt A0A384E158)
T1 construct: synthetic gene in pET-26b (NdeI/NotI), C-terminal His-tag, E. coli Rosetta2 (DE3) pLysS
T1 sequence (A0A384E158 1-246): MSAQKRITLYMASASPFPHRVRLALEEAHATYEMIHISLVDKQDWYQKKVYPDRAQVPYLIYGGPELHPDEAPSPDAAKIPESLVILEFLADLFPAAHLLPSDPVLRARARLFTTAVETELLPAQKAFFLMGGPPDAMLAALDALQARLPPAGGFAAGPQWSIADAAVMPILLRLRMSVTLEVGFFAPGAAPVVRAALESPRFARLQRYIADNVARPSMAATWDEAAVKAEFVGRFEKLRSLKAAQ

[2] = target: T2, TvGSTO-3S (Trametes versicolor, UniProt A0A384E145)
T2 construct: synthetic gene in pET-26b (NdeI/NotI), C-terminal His-tag, E. coli Rosetta2 (DE3) pLysS
T2 sequence (A0A384E145 1-240): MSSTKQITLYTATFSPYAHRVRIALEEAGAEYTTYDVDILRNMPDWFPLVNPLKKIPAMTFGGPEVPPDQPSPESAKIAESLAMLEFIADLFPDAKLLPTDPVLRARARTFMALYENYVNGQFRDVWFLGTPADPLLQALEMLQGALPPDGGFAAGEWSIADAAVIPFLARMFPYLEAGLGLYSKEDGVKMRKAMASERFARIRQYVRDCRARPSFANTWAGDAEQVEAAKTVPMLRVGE

[3] = target: T3, TvGSTO-1S (Trametes versicolor, UniProt R7S9J3)
T3 construct: gene TRAVEDRAFT_75639; synthetic gene in pET-26b (NdeI/NotI), C-terminal His-tag, E. coli Rosetta2 (DE3) pLysS
T3 sequence (R7S9J3 1-256): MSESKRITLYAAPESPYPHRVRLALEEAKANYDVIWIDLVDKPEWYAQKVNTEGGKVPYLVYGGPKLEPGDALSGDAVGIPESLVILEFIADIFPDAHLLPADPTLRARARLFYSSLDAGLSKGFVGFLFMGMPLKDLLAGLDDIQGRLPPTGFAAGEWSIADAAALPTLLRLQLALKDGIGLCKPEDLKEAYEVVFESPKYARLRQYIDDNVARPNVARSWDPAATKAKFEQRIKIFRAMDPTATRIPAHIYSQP

Structure (SMILES): O=[N+]([O-])c1ccc(Cl)c([N+](=O)[O-])c1 [CDNB, 1-chloro-2,4-dinitrobenzene]
- Km [1]: All proteins exhibit an activity against CDNB
- Km [2]: All proteins exhibit an activity against CDNB
- Km [3]: All proteins exhibit an activity against CDNB

Source: publication PMC4591263, “The GSTome Reflects the Chemical Environment of White-Rot Fungi” (PLoS ONE, 2015)
